Assay results: ChEMBL document CHEMBL1201862, “PubChem BioAssay data set” (2004)
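Tested at 5 concentrations; 48 h exposure; 96-well plates; endpoints linearly interpolated, else capped at highest concentration. Abbreviation: GI50, concentration required for 50% inhibition of growth.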 Active and inactive are the calls of the source. Rule as the data show it: active = GI50 up to about 1.1 µM and inactive = higher. Numbered stars: 1 amine (or outer) side, 2 acyl side, 3 side chain; on linkers, the order of the positions; unused ones are H or OH. Bridge positions count the residues as written; N and C are the ends. Square brackets hold non-standard residues; d marks the D form. Peptide text beside a SMILES is read from it. I, II: the chains in the order shown. * marks the point of attachment. Actinocin(9to1) = Cc1c2oc3c(C)ccc(C(=O)[*:1])c3nc-2c(C(=O)[*:2])c(N)c1=O; NMeH = CN[CH](Cc1c[nH]cn1)C(=O)O; Boc = CC(C)(C)OC(=O)*; OBn = c1ccc(CO*)cc1; Sar = CNCC(=O)O

Assays:
Test in all cases: inhibition of tumour cell growth, NCI panel, 48 h
786-0 = system: 786-0
BT-549 = system: BT-549
HCT-116 = system: HCT-116
HOP-62 = system: HOP-62
HT-29 = system: HT-29
K562 = system: K562
MCF7 = system: MCF7
MDA-N = system: MDA-N
MOLT-4 = system: MOLT-4
NCI/ADR-RES = system: NCI/ADR-RES
OVCAR-3 = system: OVCAR-3
OVCAR-4 = system: OVCAR-4
PC-3 = system: PC-3
SR = system: SR
SW-620 = system: SW-620
T47D = system: T47D
U-251 = system: U-251
UO-31 = system: UO-31
A498 = system: A498
OVCAR-5 = system: OVCAR-5

Measured: GI50

c1coc(C2=Nc3cccc4cccc(c34)N2)c1
inactive: 786-0 53.3 µM | BT-549 44.5 µM | HCT-116 23.1 µM | HOP-62 > 100 µM | HT-29 23.2 µM | K562 38.7 µM | MCF7 24.1 µM | MDA-N 41.1 µM | MOLT-4 > 100 µM | NCI/ADR-RES 18.7 µM | OVCAR-3 24.2 µM | OVCAR-4 29.9 µM | PC-3 24.2 µM | SR > 100 µM | SW-620 38.6 µM | T47D 8.49 µM | U-251 69 µM | UO-31 16.2 µM

O=c1[nH]nc(Cc2ccc(Cl)cc2)n1/N=C\c1ccc(/C=N/n2c(Cc3ccc(Cl)cc3)n[nH]c2=O)cc1
inactive: 786-0 13.3 µM | A498 > 100 µM | BT-549 > 100 µM | HCT-116 > 100 µM | HOP-62 17 µM | HT-29 > 100 µM | K562 > 100 µM | MCF7 > 100 µM | MDA-N > 100 µM | MOLT-4 > 100 µM | NCI/ADR-RES 90.2 µM | OVCAR-3 81.7 µM | OVCAR-4 76.4 µM | OVCAR-5 > 100 µM | PC-3 > 100 µM | SW-620 > 100 µM | T47D > 100 µM | U-251 26.6 µM | UO-31 > 100 µM

Cc1ccc(C(CCO)CCO)nc1
inactive: 786-0 > 100 µM | A498 > 100 µM | BT-549 > 100 µM | HCT-116 > 100 µM | HOP-62 > 100 µM | HT-29 > 100 µM | MCF7 > 100 µM | MDA-N > 100 µM | MOLT-4 > 100 µM | NCI/ADR-RES > 100 µM | OVCAR-3 > 100 µM | OVCAR-4 > 100 µM | OVCAR-5 > 100 µM | PC-3 > 100 µM | SR > 100 µM | SW-620 > 100 µM | T47D > 100 µM | U-251 > 100 µM | UO-31 > 100 µM

COc1cc2c3c(n(C)c(=O)c2cc1OC)-c1cc2c(cc1/C3=C/CCCCBr)OCO2
inactive: 786-0 17.1 µM | A498 19.8 µM | BT-549 > 100 µM | HT-29 > 100 µM | K562 35.6 µM | MCF7 4.73 µM | MDA-N > 100 µM | MOLT-4 4.51 µM | NCI/ADR-RES > 100 µM | OVCAR-5 > 100 µM | PC-3 > 100 µM | SR 1.57 µM | SW-620 16.1 µM | T47D 3.76 µM | U-251 40.9 µM | UO-31 71 µM

CC1=CC(=O)/C(=C/NC(=S)Nc2ccccc2)C(=O)O1
inactive: 786-0 > 100 µM | A498 > 100 µM | BT-549 > 100 µM | HCT-116 > 100 µM | HOP-62 > 100 µM | HT-29 > 100 µM | K562 > 100 µM | MCF7 > 100 µM | MDA-N > 100 µM | MOLT-4 > 100 µM | NCI/ADR-RES > 100 µM | OVCAR-3 > 100 µM | OVCAR-4 > 100 µM | OVCAR-5 > 100 µM | PC-3 > 100 µM | SW-620 > 100 µM | T47D > 100 µM | U-251 > 100 µM | UO-31 > 100 µM

O=C1N=C(SC(SC2=NC(=O)C3(NN2)c2ccccc2-c2ccccc23)=C(SC2=NC(=O)C3(NN2)c2ccccc2-c2ccccc23)SC2=NC(=O)C3(NN2)c2ccccc2-c2ccccc23)NNC12c1ccccc1-c1ccccc12
active: MOLT-4 0.437 µM | T47D 0.935 µM
inactive: 786-0 9.66 µM | BT-549 6.53 µM | HCT-116 5.55 µM | HOP-62 > 10 µM | HT-29 6.61 µM | K562 5.11 µM | MCF7 4.27 µM | MDA-N 5.36 µM | NCI/ADR-RES 3.66 µM | OVCAR-4 8.07 µM | PC-3 4.62 µM | SR 3.24 µM | SW-620 > 10 µM | UO-31 3.18 µM

CCCC(=O)Nc1cc(/C=C/C(=O)N2CC(CCl)c3ccc([N+](=O)[O-])cc32)n(C)c1 (centres undefined)
inactive: 786-0 62.4 µM | BT-549 4.07 µM | HCT-116 56 µM | HT-29 21.1 µM | K562 > 100 µM | MCF7 68.7 µM | MDA-N > 100 µM | NCI/ADR-RES 30.7 µM | OVCAR-3 > 100 µM | OVCAR-4 > 100 µM | OVCAR-5 > 100 µM | PC-3 > 100 µM | SR > 100 µM | SW-620 > 100 µM | T47D 70 µM | U-251 > 100 µM | UO-31 > 100 µM
active: A498 < 0.01 µM

CCOC(=O)C1=CC(C)(C(=O)OCC)Nc2c(nc(N)[nH]c2=O)N1 (centres undefined)
inactive: 786-0 > 10 µM | A498 > 10 µM | BT-549 7.31 µM | HCT-116 > 10 µM | HOP-62 > 10 µM | HT-29 > 10 µM | K562 > 10 µM | MCF7 > 10 µM | MDA-N > 10 µM | MOLT-4 > 10 µM | NCI/ADR-RES > 10 µM | OVCAR-3 > 10 µM | OVCAR-4 > 10 µM | OVCAR-5 > 10 µM | PC-3 > 10 µM | SW-620 > 10 µM | T47D > 10 µM | U-251 > 10 µM | UO-31 > 10 µM

O=[N+]([O-])c1ccc(-n2nc3ccc4nonc4c3n2)cc1
inactive: 786-0 28.1 µM | BT-549 22.7 µM | HCT-116 74.6 µM | HOP-62 16.6 µM | HT-29 > 100 µM | K562 > 100 µM | MCF7 20.4 µM | MDA-N > 100 µM | MOLT-4 > 100 µM | NCI/ADR-RES 56.1 µM | OVCAR-3 71.4 µM | OVCAR-4 9.08 µM | OVCAR-5 > 100 µM | PC-3 74.3 µM | SR > 100 µM | SW-620 > 100 µM | T47D 29.6 µM | U-251 77.1 µM | UO-31 21.3 µM

CC(NC(=O)Cc1ccccc1)NC(=O)C(C)C(=O)Nc1ccccc1 (centres undefined)
inactive: 786-0 52.2 µM | BT-549 43.5 µM | HCT-116 > 100 µM | HT-29 > 100 µM | K562 > 100 µM | MCF7 > 100 µM | MDA-N > 100 µM | MOLT-4 > 100 µM | NCI/ADR-RES > 100 µM | OVCAR-4 > 100 µM | OVCAR-5 > 100 µM | PC-3 > 100 µM | SR > 100 µM | SW-620 > 100 µM | T47D > 100 µM | U-251 43.3 µM | UO-31 43.7 µM

COc1cc2c(cc1OC)C13CC[N+]4(C)CC5=CCOC6CC(=O)N2C1C6C5CC34[O-] (centres undefined)
inactive: 786-0 > 100 µM | A498 > 100 µM | BT-549 > 100 µM | HCT-116 > 100 µM | HOP-62 > 100 µM | K562 > 100 µM | MCF7 > 100 µM | MDA-N > 100 µM | MOLT-4 > 100 µM | NCI/ADR-RES > 100 µM | OVCAR-3 > 100 µM | OVCAR-4 > 100 µM | PC-3 > 100 µM | SR > 100 µM | SW-620 > 100 µM | T47D > 100 µM | U-251 > 100 µM | UO-31 > 100 µM

CC(=O)OC[C@@]12C[C@H]3C(=O)C(C)(C)C[C@H]3[C@]1(C)[C@@H](OC(C)=O)[C@]1(O)[C@H]([C@@H](OC(=O)c3ccccc3)[C@@H](C)[C@H]1OC(C)=O)[C@H]2OC(C)=O
inactive: 786-0 > 20 µM | A498 > 20 µM | BT-549 > 20 µM | HCT-116 > 20 µM | HOP-62 > 20 µM | K562 6.87 µM | MCF7 > 20 µM | MDA-N 12.9 µM | MOLT-4 9.02 µM | NCI/ADR-RES > 20 µM | OVCAR-3 > 20 µM | OVCAR-4 > 20 µM | OVCAR-5 > 20 µM | PC-3 > 20 µM | SR > 20 µM | SW-620 > 20 µM | T47D > 20 µM | U-251 > 20 µM | UO-31 > 20 µM

CC(C)CC(NC(=O)OC(C)(C)C)C(=O)NC(CC(=O)OCc1ccccc1)C(N)=O (stereo not drawn) (Boc-Leu-Asp(OBn)-NH2; configuration not given here)
inactive: 786-0 > 100 µM | A498 > 100 µM | BT-549 > 100 µM | HCT-116 > 100 µM | HT-29 > 100 µM | K562 > 100 µM | MCF7 > 100 µM | MDA-N > 100 µM | NCI/ADR-RES > 100 µM | OVCAR-3 > 100 µM | OVCAR-4 > 100 µM | OVCAR-5 > 100 µM | PC-3 > 100 µM | SR > 100 µM | SW-620 > 100 µM | T47D > 100 µM | U-251 > 100 µM | UO-31 > 100 µM

Cc1c2oc3c(C)ccc(C(=O)NC4C(=O)NC(C(C)C)C(=O)N5CCCC5C(=O)N(C)CC(=O)N(C)C(Cc5cnc[nH]5)C(=O)OC4C)c3nc-2c(C(=O)NC2C(=O)NC(C(C)C)C(=O)N3CCCC3C(=O)N(C)CC(=O)N(C)C(Cc3cnc[nH]3)C(=O)OC2C)c(N)c1=O (centres undefined) (I: TVP[Sar][NMeH] / II: TVP[Sar][NMeH]; ester I:1-I:C, II:1-II:C; linker I:N-II:N via Actinocin(9to1); configuration not given here)
inactive: 786-0 45.6 µM | A498 > 10 µM | BT-549 > 100 µM | HOP-62 43.5 µM | HT-29 31.8 µM | K562 39.4 µM | MCF7 30.4 µM | MDA-N 25.2 µM | MOLT-4 37.3 µM | NCI/ADR-RES > 100 µM | OVCAR-3 > 100 µM | OVCAR-4 > 100 µM | OVCAR-5 > 100 µM | PC-3 55 µM | SR 65.3 µM | SW-620 27.4 µM | T47D 47.5 µM | U-251 57.1 µM | UO-31 46.8 µM
